According to patent US20230212171A1, “ALLOSTERIC EGFR INHIBITORS AND METHODS OF USE THEREOF” (Dana-Farber Cancer Institute, Inc., priority 2020, published 2023):
Where a name gives a salt, the structure may show the parent alone.

Columns and labels:
[1] = biological target: EGFR mutant L858R Ba/F3 cells (Homo sapiens, UniProt P00533, L858R, cells depend on it); experiment: Ba/F3 cell proliferation model (Cell Titer Glo), EGFR L858R; format: cell-based, murine; conditions: single agent, 72 hours; read-out: Cell ICso BaF3 EGFR L858R
Text: (§1) The EGFR mutant L858R and L858R/T790M Ba/F3 cells have been previously described (Zhou, W., et al. Nature 462, 2009, 1070-1074). All cell lines were maintained in RPMI 1640 (Cellgro; Mediatech Inc., Herndon, CA) supplemented with 10% FBS, 100 units/mL penicillin, 100 units/mL streptomycin. The EGFR I941R mutation was introduced via site directed mutagenesis using the Quick Change Site-Directed Mutagenesis kit (Stratagene; La Jolla, CA) according to the manufacturer’s instructions. All constructs were confirmed by DNA sequencing. The constructs were shuttled into the retroviral vector JP1540 using the Cre-recombination system (Agilent Technologies, Santa Clara, CA). Ba/F3 cells were then infected with retrovirus per standard protocols, as described previously (Zhou, et al, Nature 2009). Stable clones were obtained by selection in puromycin (2 µg/ml).
(§2) Growth and inhibition of growth was assessed by the Cell Titer Glo assay (Promega, Madison, WI) and was performed according to the manufacturer’s instructions. The Cell Titer Glo assay is a luminescence-based method used to determine the number of viable cells based on quantitation of the ATP present, which is directly proportional to the amount of metabolically active cells present. Ba/F3 cells of different EGFR genotypes were exposed to compounds as a single agent or in combination with 1 µg/mL cetuximab for 72 hours and the number of cells used per experiment was determined empirically as has been previously established (Zhou, et al., Nature 2009). All experimental points were set up in triplicates in 384-well plates and all experiments were repeated at least three times. […] The curves were fitted using a non-linear regression model with a sigmoidal dose response.

EGFR L858R = EGFR L858R (Homo sapiens, UniProt P00533, L858R); experiment: HTRF-based EGFR biochemical assay (L858R); conditions: enzyme 0.1 nM, ATP 100 µM, 30 min preincubation
Method: (§3) EGFR biochemical activity measurements were carried out using the homogeneous time-resolved fluorescence (HTRF) assay (Cisbio). Inhibitors and DMSO normalizations were first dispensed to empty black low-volume 384-well plates (Corning) with D300 digital liquid dispenser (HP). All reactions were carried out at room temperature and solutions were added to plates with a Multidrop Combi Reagent Dispenser (ThermoFisher). The reaction mixture (10 µL final volume) contained 1 µM tyrosine kinase peptide-biotin substrate and mutant EGFR in a reaction buffer (50 mM HEPES pH 7.0, 5 mM MgCl2, 1 mM MnCl2, 0.01% BSA, 2 mM TCEP, 0.1 mM NaVO4). Enzyme concentrations were adjusted to accommodate varying kinase activities (L858R 0.1 nM, L858R/T790M 0.02 nM). Enzyme reaction solution (2× concentrations, 5 µL) was added to 384-well plates containing compounds and incubated for 30 mins. Enzyme reactions were initiated with the addition of 5 µL of ATP to a final concentration of 100 µM and reacted for 20 mins. Reactions were quenched with the addition of 10 µL of phospho-tyrosine antibody-Europium(III) cryptate (1-to-180 volume ratio) and Streptavidin-XL665 (46.7 nM) in EDTA-containing detection buffer, then incubated at room temperature for 1 hour, and read with a PHERAstar plate reader (excitation = 337 nm, emission = 620 nm and 665 nm). IC50 values were determined by inhibition curves (11-point curves from 1.0 µM to 0.130 nM or 23-point curves from 1.0 µM to 0.130 pM) in triplicate with non-linear least squares fit in GraphPad Prism 7.0d.

EGFR L858R/T790M = EGFR L858R/T790M (Homo sapiens, UniProt P00533, L858R/T790M); experiment: HTRF-based EGFR biochemical assay (L858R/T790M); conditions: enzyme 0.02 nM, ATP 100 µM, 30 min preincubation
Method: as §3

[2] = biological target: EGFR mutant L858R/T790M Ba/F3 cells (Homo sapiens, UniProt P00533, T790M/L858R, cells depend on it); experiment: Ba/F3 cell proliferation model (Cell Titer Glo), EGFR L858R/T790M; format: cell-based, murine; conditions: single agent, 72 hours; read-out: Cell IC50 BaF3 EGFR L858R/T790M
Text: as §1, §2

Sequence of EGFR mutant L858R Ba/F3 cells (P00533 whole entry L858R): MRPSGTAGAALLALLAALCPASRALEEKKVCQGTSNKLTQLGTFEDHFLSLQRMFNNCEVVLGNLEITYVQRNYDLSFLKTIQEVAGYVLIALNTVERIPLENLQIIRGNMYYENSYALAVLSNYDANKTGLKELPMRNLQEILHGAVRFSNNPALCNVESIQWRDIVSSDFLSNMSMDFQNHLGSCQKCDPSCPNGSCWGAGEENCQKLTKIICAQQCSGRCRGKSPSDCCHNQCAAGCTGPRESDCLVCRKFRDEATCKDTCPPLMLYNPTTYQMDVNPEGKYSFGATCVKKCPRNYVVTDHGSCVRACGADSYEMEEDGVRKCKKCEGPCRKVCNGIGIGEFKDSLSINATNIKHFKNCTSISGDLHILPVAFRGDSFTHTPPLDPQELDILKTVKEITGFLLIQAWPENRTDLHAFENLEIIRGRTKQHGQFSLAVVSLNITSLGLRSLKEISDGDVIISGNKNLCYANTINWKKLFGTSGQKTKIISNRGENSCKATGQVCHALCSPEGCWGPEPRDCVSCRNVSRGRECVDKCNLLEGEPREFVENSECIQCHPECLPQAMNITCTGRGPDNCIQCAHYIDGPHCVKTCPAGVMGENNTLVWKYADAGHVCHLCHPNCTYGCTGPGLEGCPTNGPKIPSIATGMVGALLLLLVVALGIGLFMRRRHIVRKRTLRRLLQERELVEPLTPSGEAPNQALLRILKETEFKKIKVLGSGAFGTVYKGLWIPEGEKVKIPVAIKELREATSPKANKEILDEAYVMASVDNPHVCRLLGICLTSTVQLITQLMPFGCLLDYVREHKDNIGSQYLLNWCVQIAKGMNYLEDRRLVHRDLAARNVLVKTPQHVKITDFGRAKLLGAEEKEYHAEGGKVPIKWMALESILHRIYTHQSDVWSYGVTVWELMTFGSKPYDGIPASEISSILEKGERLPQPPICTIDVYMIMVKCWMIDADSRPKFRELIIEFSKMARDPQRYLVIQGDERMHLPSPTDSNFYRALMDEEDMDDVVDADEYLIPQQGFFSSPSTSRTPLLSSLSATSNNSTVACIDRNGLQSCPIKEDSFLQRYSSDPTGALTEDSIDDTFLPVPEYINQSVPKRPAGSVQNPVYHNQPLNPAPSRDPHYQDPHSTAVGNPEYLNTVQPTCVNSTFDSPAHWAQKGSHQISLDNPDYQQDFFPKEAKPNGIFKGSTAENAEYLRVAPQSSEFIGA
Sequence of EGFR mutant L858R/T790M Ba/F3 cells (P00533 whole entry T790M/L858R): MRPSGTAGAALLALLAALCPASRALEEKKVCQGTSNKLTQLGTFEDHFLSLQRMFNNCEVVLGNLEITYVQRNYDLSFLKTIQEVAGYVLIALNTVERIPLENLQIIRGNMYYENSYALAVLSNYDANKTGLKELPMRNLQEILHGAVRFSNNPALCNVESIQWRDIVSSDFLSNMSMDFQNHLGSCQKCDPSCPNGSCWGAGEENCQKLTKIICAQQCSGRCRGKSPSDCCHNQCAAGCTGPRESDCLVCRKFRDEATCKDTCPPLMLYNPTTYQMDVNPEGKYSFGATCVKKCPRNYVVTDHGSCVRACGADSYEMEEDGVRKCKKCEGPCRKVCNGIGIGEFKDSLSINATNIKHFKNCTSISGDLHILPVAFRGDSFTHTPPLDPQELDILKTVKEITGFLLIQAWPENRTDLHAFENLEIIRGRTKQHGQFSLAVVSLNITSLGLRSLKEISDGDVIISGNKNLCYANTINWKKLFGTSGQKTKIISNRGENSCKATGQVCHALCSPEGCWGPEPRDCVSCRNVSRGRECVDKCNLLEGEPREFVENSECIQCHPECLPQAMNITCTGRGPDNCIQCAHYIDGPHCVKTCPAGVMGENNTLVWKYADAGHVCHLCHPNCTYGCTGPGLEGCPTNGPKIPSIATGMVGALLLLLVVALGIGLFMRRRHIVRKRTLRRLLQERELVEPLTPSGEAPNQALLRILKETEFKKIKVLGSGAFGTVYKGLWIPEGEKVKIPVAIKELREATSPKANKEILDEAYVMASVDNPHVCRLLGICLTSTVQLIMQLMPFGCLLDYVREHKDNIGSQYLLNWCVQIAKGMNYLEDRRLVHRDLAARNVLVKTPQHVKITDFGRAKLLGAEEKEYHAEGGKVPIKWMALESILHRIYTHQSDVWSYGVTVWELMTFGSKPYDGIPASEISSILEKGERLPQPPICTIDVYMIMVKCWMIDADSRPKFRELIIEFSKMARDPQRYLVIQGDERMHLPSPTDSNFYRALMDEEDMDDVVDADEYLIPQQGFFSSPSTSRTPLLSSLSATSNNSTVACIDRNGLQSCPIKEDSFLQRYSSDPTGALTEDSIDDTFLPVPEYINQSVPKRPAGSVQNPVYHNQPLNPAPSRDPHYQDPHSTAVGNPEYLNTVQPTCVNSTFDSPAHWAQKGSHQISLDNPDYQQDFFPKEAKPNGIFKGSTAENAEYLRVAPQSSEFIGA
Sequence of EGFR L858R/T790M (P00533 25-1210 T790M/L858R): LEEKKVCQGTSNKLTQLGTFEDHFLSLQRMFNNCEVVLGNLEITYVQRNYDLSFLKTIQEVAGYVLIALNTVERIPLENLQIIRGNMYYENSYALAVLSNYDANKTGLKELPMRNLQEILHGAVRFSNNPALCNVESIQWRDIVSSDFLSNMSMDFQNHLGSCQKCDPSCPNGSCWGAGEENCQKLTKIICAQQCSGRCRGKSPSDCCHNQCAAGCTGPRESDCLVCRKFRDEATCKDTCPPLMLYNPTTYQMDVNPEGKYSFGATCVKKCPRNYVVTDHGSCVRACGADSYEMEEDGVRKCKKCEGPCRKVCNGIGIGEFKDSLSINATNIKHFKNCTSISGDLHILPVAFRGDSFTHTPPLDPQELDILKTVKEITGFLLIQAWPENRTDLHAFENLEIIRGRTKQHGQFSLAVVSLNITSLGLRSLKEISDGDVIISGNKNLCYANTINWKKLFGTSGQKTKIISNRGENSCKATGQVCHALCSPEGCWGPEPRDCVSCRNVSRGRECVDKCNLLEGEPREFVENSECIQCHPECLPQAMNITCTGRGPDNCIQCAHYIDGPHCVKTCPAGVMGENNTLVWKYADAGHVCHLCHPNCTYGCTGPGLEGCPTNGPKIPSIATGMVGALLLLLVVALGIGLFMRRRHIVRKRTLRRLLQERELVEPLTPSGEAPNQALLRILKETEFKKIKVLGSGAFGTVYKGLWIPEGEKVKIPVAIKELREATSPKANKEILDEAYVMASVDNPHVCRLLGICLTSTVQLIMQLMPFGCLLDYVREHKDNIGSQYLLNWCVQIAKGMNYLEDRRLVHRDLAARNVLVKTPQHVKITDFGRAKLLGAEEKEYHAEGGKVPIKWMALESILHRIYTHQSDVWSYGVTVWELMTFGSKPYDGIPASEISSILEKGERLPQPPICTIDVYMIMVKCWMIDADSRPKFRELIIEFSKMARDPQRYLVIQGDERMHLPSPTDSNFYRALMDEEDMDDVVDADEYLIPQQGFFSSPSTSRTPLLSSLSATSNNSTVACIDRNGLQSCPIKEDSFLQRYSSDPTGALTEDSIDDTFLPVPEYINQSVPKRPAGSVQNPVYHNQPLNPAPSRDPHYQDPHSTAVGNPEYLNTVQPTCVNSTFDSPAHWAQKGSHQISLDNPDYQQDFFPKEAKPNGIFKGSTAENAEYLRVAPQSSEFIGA
Sequence of EGFR L858R (P00533 25-1210 L858R): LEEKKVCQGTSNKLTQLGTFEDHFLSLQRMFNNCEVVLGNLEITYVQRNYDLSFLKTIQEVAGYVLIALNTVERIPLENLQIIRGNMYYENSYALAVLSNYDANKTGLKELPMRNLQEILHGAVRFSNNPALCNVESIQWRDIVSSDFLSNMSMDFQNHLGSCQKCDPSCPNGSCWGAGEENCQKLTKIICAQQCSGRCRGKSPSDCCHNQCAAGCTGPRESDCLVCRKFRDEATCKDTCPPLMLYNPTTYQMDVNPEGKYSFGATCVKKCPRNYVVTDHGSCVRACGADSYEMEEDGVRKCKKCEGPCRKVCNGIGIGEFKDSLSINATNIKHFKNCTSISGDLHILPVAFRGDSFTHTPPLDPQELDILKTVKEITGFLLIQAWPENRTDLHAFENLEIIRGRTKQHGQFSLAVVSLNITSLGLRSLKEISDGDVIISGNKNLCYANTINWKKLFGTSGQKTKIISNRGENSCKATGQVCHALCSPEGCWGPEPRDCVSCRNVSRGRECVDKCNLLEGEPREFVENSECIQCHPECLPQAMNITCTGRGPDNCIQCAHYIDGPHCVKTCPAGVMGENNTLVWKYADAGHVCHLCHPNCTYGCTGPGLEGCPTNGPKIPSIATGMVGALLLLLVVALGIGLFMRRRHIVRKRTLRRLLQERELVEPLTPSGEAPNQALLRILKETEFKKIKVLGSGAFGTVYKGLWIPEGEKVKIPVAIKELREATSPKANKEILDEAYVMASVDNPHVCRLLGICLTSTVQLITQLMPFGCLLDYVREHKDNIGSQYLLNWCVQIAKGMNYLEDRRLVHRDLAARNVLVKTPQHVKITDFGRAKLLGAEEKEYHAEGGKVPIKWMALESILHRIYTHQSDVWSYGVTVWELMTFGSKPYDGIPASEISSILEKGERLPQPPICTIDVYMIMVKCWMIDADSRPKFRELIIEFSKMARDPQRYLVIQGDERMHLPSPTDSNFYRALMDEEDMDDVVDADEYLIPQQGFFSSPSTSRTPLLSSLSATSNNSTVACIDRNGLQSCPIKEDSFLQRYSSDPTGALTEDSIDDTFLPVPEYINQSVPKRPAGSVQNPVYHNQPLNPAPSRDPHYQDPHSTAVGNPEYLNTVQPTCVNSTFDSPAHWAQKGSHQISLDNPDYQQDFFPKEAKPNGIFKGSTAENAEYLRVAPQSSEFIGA

SMILES | GI50 [1] [nM] | IC50 (EGFR L858R) [nM] | IC50 (EGFR L858R/T790M) [nM] | GI50 [2] [nM]
CN1CCC(c2ccc(-c3cc4c(=O)n(C(c5nc6ccccc6[nH]5)c5cc(F)ccc5O)ccc4s3)cc2)CC1 (stereo not drawn) [Compound 010, 5-[1H-benzimidazol-2-yl-(5-fluoro-2-hydroxy-phenyl)methyl]-2-[4-(1-methyl-4-piperidyl)phenyl]thieno[3,2-c]pyridin-4-one;dihydrochloride] | 1080 | 2 | 0.8 | 240
CN1CCC(c2ccc(-c3cc4c(s3)CCN(C(c3nc5ccccc5[nH]3)c3cc(F)ccc3O)C4=O)cc2)CC1 (stereo not drawn) [Compound 012, 5-[1H-Benzimidazol-2-Yl-(5-Fluoro-2-Hydroxy-Phenyl)Methyl]-2-[4-(1-Methyl-4-Piperidyl)Phenyl]-6,7-Dihydrothieno[3,2-c]Pyridin-4-One;Dihydrochloride] | 1700 | 10 | 5 | 840
CN1CCC(c2ccc(-c3cc4c(s3)CN(C(c3nc5ccccc5[nH]3)c3cc(F)ccc3O)C4=O)cc2)CC1 (stereo not drawn) [Compound 013, 5-[1H-Benzimidazol-2-Yl-(5-Fluoro-2-Hydroxy-Phenyl)Methyl]-2-[4-(1-Methyl-4-Piperidyl)Phenyl]-6H-Thieno[2,3-c]Pyrrol-4-One;Dihydrochloride] | 1010 | 9 | 14 | 750
CN1CCC(c2ccc(-c3cc4c(s3)C(=O)N(C(c3nc5ccccc5[nH]3)c3cc(F)ccc3O)C4)cc2)CC1 (stereo not drawn) [Compound 014, 5-[1H-benzimidazol-2-yl-(5-fluoro-2-hydroxy-phenyl)methyl]-2-[4-(1-methyl-4-piperidyl)phenyl]-4H-thieno[2,3-c]pyrrol-6-one;dihydrochloride] | 1330 | 21 | 21 | 1180

These reach a lower GI50 [1]. Values come first.

GI50 [1] [nM] | IC50 (EGFR L858R) [nM] | IC50 (EGFR L858R/T790M) [nM] | GI50 [2] [nM] | SMILES
530 | 6 | 8 | 480 | CN1CCC(c2ccc(-c3ccc4c(c3)CC(=O)N(C(c3nc5ccccc5[nH]3)c3cc(F)ccc3O)C4)cc2)CC1 (stereo not drawn) [Compound 018, 2-[1H-benzimidazol-2-yl-(5-fluoro-2-hydroxy-phenyl)methyl]-6-[4-(1-methyl-4-piperidyl)phenyl]-1,4-dihydroisoquinolin-3-one]
490 | 6 | 2 | 280 | CN1CCC(c2ccc(-c3cc4c(s3)C(=O)N(C(c3nc5ccccc5[nH]3)c3cc(F)ccc3O)CC4)cc2)CC1 (stereo not drawn) [Compound 011, 6-[1H-benzimidazol-2-yl-(5-fluoro-2-hydroxy-phenyl)methyl]-2-[4-(1-methyl-4-piperidyl)phenyl]-4,5-dihydrothieno[2,3-c]pyridin-7-one;dihydrochloride]
